≈ marks a conversion by molar mass, not a printed value.
How the values were obtained:
Format in all cases: functional
Klebsiella pneumoniae [1] = assay: Antibacterial activity against Klebsiella pneumoniae isolate 16 expressing qnr B19 gene, GyrA D87G mutant after 24 hrs by twofold serial dilution method; details: isolate 16, 24 h
Klebsiella pneumoniae [2] = assay: Antibacterial activity against Klebsiella pneumoniae isolate 204 expressing qnr B19 gene after 24 hrs by twofold serial dilution method; details: Klebsiella pneumoniae, isolate 204, 24 h
Klebsiella pneumoniae [3] = assay: Antibacterial activity against Klebsiella pneumoniae isolate 172 expressing qnr B19 gene, GyrA D87G mutant after 24 hrs by twofold serial dilution method; details: isolate 172, 24 h
Escherichia coli [4] = assay: Antibacterial activity against Escherichia coli isolate 21 after 24 hrs by twofold serial dilution method; details: Escherichia coli, isolate 21, 24 h
Escherichia coli [5] = assay: Antibacterial activity against Escherichia coli isolate 13 after 24 hrs by twofold serial dilution method; details: Escherichia coli, isolate 13, 24 h
Escherichia coli [6] = assay: Antibacterial activity against Escherichia coli isolate 7 after 24 hrs by twofold serial dilution method; details: Escherichia coli, isolate 7, 24 h
Escherichia coli [7] = assay: Antibacterial activity against Escherichia coli Top10 after 24 hrs by twofold serial dilution method; details: Escherichia coli, Top10, 24 h
Escherichia coli [8] = assay: Antibacterial activity against Escherichia coli HB101 after 24 hrs by twofold serial dilution method; details: Escherichia coli, HB101, 24 h
Escherichia coli [9] = assay: Antibacterial activity against Escherichia coli JM109 after 24 hrs by twofold serial dilution method; details: Escherichia coli, JM109, 24 h
Escherichia coli [10] = assay: Antibacterial activity against Escherichia coli JM110 after 24 hrs by twofold serial dilution method; details: Escherichia coli, JM110, 24 h
Escherichia coli [11] = assay: Antibacterial activity against Escherichia coli XL-1Blue after 24 hrs by twofold serial dilution method; details: Escherichia coli, XL-1Blue, 24 h
Staphylococcus aureus = assay: Antibacterial activity against Staphylococcus aureus after 24 hrs by twofold serial dilution method; details: Staphylococcus aureus, 24 h
Klebsiella pneumoniae [12] = assay: Antibacterial activity against Klebsiella pneumoniae isolate 5 expressing qnr B19 gene, GyrA D87G mutant after 24 hrs by twofold serial dilution method; details: isolate 5, 24 h
Klebsiella pneumoniae [13] = assay: Antibacterial activity against Klebsiella pneumoniae isolate 110 expressing qnr B19 gene, GyrA D87G mutant after 24 hrs by twofold serial dilution method; details: isolate 110, 24 h
Klebsiella pneumoniae [14] = assay: Antibacterial activity against Klebsiella pneumoniae isolate 97 expressing qnr B19 gene after 24 hrs by twofold serial dilution method; details: Klebsiella pneumoniae, isolate 97, 24 h
Escherichia coli [15] = assay: Antibacterial activity against Escherichia coli isolate 95 expressing GyrA S83L mutant after 24 hrs by twofold serial dilution method; details: isolate 95, 24 h
Escherichia coli [16] = assay: Antibacterial activity against Escherichia coli isolate 115 expressing GyrA S83L mutant after 24 hrs by twofold serial dilution method; details: isolate 115, 24 h
Escherichia coli [17] = assay: Antibacterial activity against Escherichia coli isolate 85 expressing GyrA S83L mutant after 24 hrs by twofold serial dilution method; details: isolate 85, 24 h
Escherichia coli [18] = assay: Antibacterial activity against Escherichia coli isolate 24 after 24 hrs by twofold serial dilution method; details: Escherichia coli, isolate 24, 24 h
Escherichia coli [19] = assay: Antibacterial activity against Escherichia coli isolate 41 after 24 hrs by twofold serial dilution method; details: Escherichia coli, isolate 41, 24 h
Escherichia coli [20] = assay: Antibacterial activity against Escherichia coli isolate 191 expressing qnr S1 gene after 24 hrs by twofold serial dilution method; details: Escherichia coli, isolate 191, 24 h
Escherichia coli [21] = assay: Antibacterial activity against Escherichia coli isolate 9 expressing qnr B19 gene, GyrA D87G, ParC S80I mutant after 24 hrs by twofold serial dilution method; details: isolate 9, 24 h
Escherichia coli [22] = assay: Antibacterial activity against Escherichia coli isolate 50 expressing qnr B19 gene after 24 hrs by twofold serial dilution method; details: Escherichia coli, isolate 50, 24 h
Escherichia coli [23] = assay: Antibacterial activity against Escherichia coli isolate 47 expressing qnr B19 gene after 24 hrs by twofold serial dilution method; details: Escherichia coli, isolate 47, 24 h
Klebsiella pneumoniae [24] = assay: Antibacterial activity against Klebsiella pneumoniae isolate 173 after 24 hrs by twofold serial dilution method; details: Klebsiella pneumoniae, isolate 173, 24 h
Klebsiella pneumoniae [25] = assay: Antibacterial activity against Klebsiella pneumoniae isolate 91 after 24 hrs by twofold serial dilution method; details: Klebsiella pneumoniae, isolate 91, 24 h
Klebsiella pneumoniae [26] = assay: Antibacterial activity against Klebsiella pneumoniae isolate 134 after 24 hrs by twofold serial dilution method; details: Klebsiella pneumoniae, isolate 134, 24 h
Klebsiella pneumoniae [27] = assay: Antibacterial activity against Klebsiella pneumoniae isolate 92 after 24 hrs by twofold serial dilution method; details: Klebsiella pneumoniae, isolate 92, 24 h
Klebsiella pneumoniae [28] = assay: Antibacterial activity against Klebsiella pneumoniae isolate 370 expressing qnr B19 gene, GyrA D87G mutant after 24 hrs by twofold serial dilution method; details: isolate 370, 24 h
Klebsiella pneumoniae [29] = assay: Antibacterial activity against Klebsiella pneumoniae isolate 328 expressing qnr B19 gene, GyrA D87G mutant after 24 hrs by twofold serial dilution method; details: isolate 328, 24 h

Work on `O=C(O)c1cn(C2CC2)c2cc(N3CCNCC3)c(F)cc2c1=O` [CIPROFLOXACIN] yielded an MIC90 (Klebsiella pneumoniae [1]) of 2 µg/mL (≈ 6.04 µM), an MIC90 (Klebsiella pneumoniae [2]) of 0.75 µg/mL (≈ 2.26 µM) and an MIC90 (Klebsiella pneumoniae [3]) of under 0.25 µg/mL. It also gave an MIC90 (Escherichia coli [4]) of 4 µg/mL (≈ 12.1 µM), an MIC90 (Escherichia coli [5]) of over 4 µg/mL and an MIC90 (Escherichia coli [6]) of over 4 µg/mL. It also gave an MIC90 (Escherichia coli [7]) of under 0.25 µg/mL, an MIC90 (Escherichia coli [8]) of under 0.25 µg/mL and an MIC90 (Escherichia coli [9]) of over 4 µg/mL. The MIC90 (Escherichia coli [10]) was over 4 µg/mL, the MIC90 (Escherichia coli [11]) was over 4 µg/mL and the MIC90 (Staphylococcus aureus) was over 4 µg/mL. The MIC90 (Klebsiella pneumoniae [12]) was under 0.25 µg/mL, the MIC90 (Klebsiella pneumoniae [13]) was under 0.25 µg/mL and the MIC90 (Klebsiella pneumoniae [14]) was under 0.25 µg/mL. For the same compound, the MIC90 (Escherichia coli [15]) was 1 µg/mL (≈ 3.02 µM), the MIC90 (Escherichia coli [16]) was 0.5 µg/mL (≈ 1.51 µM) and the MIC90 (Escherichia coli [17]) was 0.5 µg/mL (≈ 1.51 µM). For the same compound, the MIC90 (Escherichia coli [18]) was under 0.25 µg/mL, the MIC90 (Escherichia coli [19]) was under 0.25 µg/mL and the MIC90 (Escherichia coli [20]) was 1 µg/mL (≈ 3.02 µM). The MIC90 (Escherichia coli [21]) was over 4 µg/mL, the MIC90 (Escherichia coli [22]) was under 0.25 µg/mL and the MIC90 (Escherichia coli [23]) was under 0.25 µg/mL. It also gave an MIC90 (Klebsiella pneumoniae [24]) of over 4 µg/mL, an MIC90 (Klebsiella pneumoniae [25]) of over 4 µg/mL and an MIC90 (Klebsiella pneumoniae [26]) of under 0.25 µg/mL. The MIC90 (Klebsiella pneumoniae [27]) was under 0.25 µg/mL, the MIC90 (Klebsiella pneumoniae [28]) was over 4 µg/mL and the MIC90 (Klebsiella pneumoniae [29]) was over 4 µg/mL.

Reference: ChEMBL document CHEMBL1157738, “Simocyclinone D8 turns on against Gram-negative bacteria in a clinical setting” (2010)
